In test [1] the test system is HPV-specific T cells from HNC patients. Description: HPV T-cell epitope mapping by intracellular cytokine staining (ICS). The class given is cell-based, human. Particulars: for T cell specificity: epitopes mapped in HNC patient T cells, Table 1; for epitope identified by fine-mapping: FIG. 5 and FIG. 6. The procedure: (§1) Peripheral blood mononuclear cells (PBMCs) from HNC patients were isolated and stimulated with HPV antigen pepmix peptide pools for either HPV16 or HPV18 in separate cultures and prepared for the intracellular cytokine staining (ICS) assay, as described above (non-stimulated controls were run in parallel). T cell response to the pepmix peptide pools was analyzed to identify individual peptides. These individual peptides were further assessed for T cell expansion and ICS analysis to identify potential epitopes. Once the 15mer peptide was identified, further mimimalization of the epitope sequence was carried out to identify the optimal T cell epitope sequence. The 15mer peptide sequences were trimmed from both N- and C-terminus to a minimal of 9-14 amino acid long peptides. Once the minimal peptide sequence was identified, further confirmation was carried out using limiting dose titration ICS assay. After mapping minimal epitope sequence, the HLA restriction of the epitope was identified by stimulating T cells using peptide loaded HLA-matched and mismatched PHA blasts (PHA).
Representative data showing that HPV-specific T cells from HNC patients recognized HPV16-E6, HPV18-E6 antigens can be found in FIGS. 1 and 2, respectively. In order to map the T cell epitope, further analysis was carried out using sub pools of E6 peptides. […] When analyzed on an HPV peptide matrix layout, the common peptide sequence among the responding pools was identified.

The test system of test [2] is HPV-specific T cells / HLA-matched and mismatched PHA blasts. Description: HLA restriction mapping with peptide loaded HLA-matched and mismatched PHA blasts. Particulars: epitopes mapped in HNC patient T cells, Table 1. The class given is cell-based, human. The procedure: as §1

Turning to “AFRDLCIVY (listed as Human papillomavirus)”, the T cell specificity result in test [1] is recorded as “CD8^+”.
The same measure, in the same setting: for “DRAHYNIVTF (listed as Human papillomavirus)” the value was “CD8^+”.
For the sequence “EKQRHLDKKQRFHNIRGRWTGRCMSCC (listed as Human papillomavirus)”, the T cell specificity entry in test [1] was “CD4^+”. Further, the HLA restriction result in test [2] was “DRB115:01”.
In the case of “FELSQMVQW (listed as Human papillomavirus)”, the T cell specificity entry in test [1] was “CD8^+”.
The same measure, in the same setting: for “FRDLCIVYR (listed as Human papillomavirus)” the value was “CD8^+”.
Same read-out and setting: under “GRWTGRCMSC (listed as Human papillomavirus)” stands “CD8^+”; under “HDIILECVY (listed as Human papillomavirus)”, “CD8^+”.
On to “HIDYWKHMRLECALY (listed as Human papillomavirus)”, for which the T cell specificity entry in test [1] is listed as “CD4^+”. The HLA restriction entry in test [2] is “DQB1*03:01”.
For “IRCINCQKPL (listed as Human papillomavirus)”, the T cell specificity entry in test [1] is given as “CD8^+”.
The same measure, in the same setting: under “KLPQLCTEL (listed as Human papillomavirus)” stands “CD8^+”.
For the sequence KQRFHNIRGRWTGRC, in test [1], the “epitope identified by fine-mapping” value was “fine CD4 epitope-mapping of HPV16-E6 pools identified”.
Regarding “LEDLLMGTLGI (listed as Human papillomavirus)”, in test [1], the T cell specificity result was “CD8^+”.
The same measure, in the same setting: for LLMGTLGIV the value was “CD8^+”.
Same read-out and setting: under “LQDVSLEVYL (listed as Human papillomavirus)” stands “CD8^+”; under “NLDTASTTL (listed as Human papillomavirus)”, “CD8^+”.
Turning to “RCINCQKPLCPEEKQRHLD (listed as Human papillomavirus)”, the T cell specificity entry in test [1] was “CD4^+”. In test [2], the HLA restriction entry was “DRB115:01”.
For the sequence “RPFKSNKST (listed as Human papillomavirus)”, the T cell specificity entry in test [1] is “CD8^+”.
The same measure, in the same setting: for “SAFRCFIVY (listed as Human papillomavirus)” the value was “CD8^+”; for “SEIAYKYAQ (listed as Human papillomavirus)”, “CD8^+”; for “SPATAFTVY (listed as Human papillomavirus)”, “CD8^+”.
On to “SVDSAPILTAFNSSH (listed as Human papillomavirus)”, for which the T cell specificity result in test [1] is recorded as “CD4^+”. Besides, the HLA restriction result in test [2] is “DQB1*03:01”.
For “TIHDIILECV (listed as Human papillomavirus)”, the T cell specificity result in test [1] was “CD8^+”.
On the same count and under the same terms, under TLLQQYCLYL stands “CD8^+”.
Consider “TLQDVSLEVYL (listed as Human papillomavirus)”, for which the T cell specificity result in test [1] is recorded as “CD8^+”.
“TPTLHEYMLDLQPETTDLY (listed as Human papillomavirus)”: in test [1], the T cell specificity result is “CD4^+”. Further, in test [2], the HLA restriction entry was “DQB1*03:01”.
In the case of “TVLELTEVFEF (listed as Human papillomavirus)”, the T cell specificity result in test [1] is on record as “CD8^+”.
Turning to “TVLELTEVFEFA (listed as Human papillomavirus)”, in test [1], the “epitope identified by fine-mapping” value was “HPV18-E6 CD^+ T cell epitope” and the T cell specificity result was “CD8^+”.
Turning to “VQSTHVDIRTLEDLLMGTL (listed as Human papillomavirus)”, the T cell specificity entry in test [1] was “CD4^+”. In test [2], the HLA restriction result is reported as “DQB1*03:01”.
“VWEVHAGGQVI (listed as Human papillomavirus)”: the T cell specificity result in test [1] was “CD8^+”.
“VYDYAFRDLCIVYRDGNPYAVCD (listed as Human papillomavirus)”: in test [1], the T cell specificity entry is given as “CD4^+”. The HLA restriction entry in test [2] is listed as “DRB115:01”.
The corresponding values for “WKSFFSRTWSRLSLH (listed as Human papillomavirus)” are “CD4^+” and “DRB1*04:01”.
Turning to “WPTTPPRPI (listed as Human papillomavirus)”, in test [1], the T cell specificity result was “CD8^+”.
Take “YEQLNDSSEEEDEID (listed as Human papillomavirus)”: in test [1], the T cell specificity result was “CD4^+”. In addition, the HLA restriction entry in test [2] is “DQB1*03:01”.

The record behind these values is patent US20210046114A1, “HPV IMMUNOTHERAPY” (The Council of the Queensland Institute of Medical Research, priority 2018, published 2021).
